For data set [1] the following is noted: human.
The conditions of data set [2]: human. This is another data set of the same source.
For data set [3] the following is noted: human, serum.
For data set [4] the following is noted: human. The source holds these as a separate data set.
The nature of data set [5]: Highest frequency of moderate liver toxicity observed during clinical trials, expressed as a percentage. [column '% BIOL' in source]. Particulars: human.
For data set [6] the following is noted: human. The source holds these as a separate data set.
For data set [7] the following is noted: human, serum. The source holds these as a separate data set.
Data set [8] can be described thus: Highest frequency of acute liver toxicity observed during clinical trials, expressed as a percentage. [column '% AIGUE' in source]. The note with it: human.
The conditions of data set [9]: human. The source holds these as a separate data set.
For data set [10] the following is noted: human. This is another data set of the same source.
The conditions of data set [11]: human. The source holds these as a separate data set.
For data set [12] the following is noted: human. This is another data set of the same source.
For data set [13] the following is noted: human, serum, 4383 h.
The conditions of data set [14]: human. This is another data set of the same source.
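Wherever Hepatotoxicity (association with vascular disease) is given: count of indexed literature references reporting vascular liver injury in humans, e.g. peliosis hepatitis, hepatic veno-occlusive disease or Budd-Chiari syndrome.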
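Wherever Hepatotoxicity (benign tumour) is given: value is a count of indexed literature references citing a benign tumour confirmed by histopathology.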
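Wherever Hepatotoxicity (choleostasis) is given: human cholestatic liver injury, shown by histopathology or by peak ALT or AST elevation over alkaline phosphatase ratio below 2, value counts indexed literature reports.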
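Wherever Hepatotoxicity (chronic liver disease) is given: chronic liver injury confirmed by histopathology or persistently raised serum aminotransferase activity beyond 6 months, value given as the count of indexed literature references.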
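Wherever Hepatotoxicity (cirrhosis) is given: value is a count of indexed literature references reporting cirrhosis confirmed by histopathology.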
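Wherever Hepatotoxicity (cytolytic) is given: human cytolytic liver injury, shown by histopathology or by a ratio above 5 of peak ALT or AST elevation to alkaline phosphatase elevation, value counts indexed references.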
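Wherever Hepatotoxicity (granulomatous hepatitis) is given: value is a count of indexed literature references reporting granulomatous liver disease confirmed by histopathology.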
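Wherever Hepatotoxicity (malignant tumour) is given: malignant tumour confirmed by histopathology, value gives the count of indexed literature references reporting it.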
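Wherever Hepatotoxicity (severe hepatitis) is given: human clinical data: severe hepatitis, meaning potentially life-threatening liver failure or clinically observed cases, the value counts how many indexed literature references report it.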
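Wherever Hepatotoxicity (steatosis) is given: steatosis confirmed by histopathology, value is the count of indexed references.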

`NCCC(O)(P(=O)(O)O)P(=O)(O)O` [PAMIDRONIC ACID]: in data set [1], the “Hepatotoxicity (choleostasis)” value came out at 0. Further, the “Hepatotoxicity (severe hepatitis)” value in data set [2] was 0. Also, the results for the “Hepatotoxicity (acute)” value in data set [3] and in data set [8] were 0 and 0%, respectively. Also, the “Hepatotoxicity (benign tumour)” value in data set [4] is recorded as 0. Further, the results for the “Hepatotoxicity (moderate)” value in data set [5] and in data set [7] were 2.7% and 3, respectively. In data set [6], the “Hepatotoxicity (association with vascular disease)” value turned out to be 0. In addition, in data set [9], the “Hepatotoxicity (cirrhosis)” value was found to be 0. The “Hepatotoxicity (granulomatous hepatitis)” value in data set [10] is 0. In addition, in [11], the “Hepatotoxicity (steatosis)” value came out at 0. The “Hepatotoxicity (cytolytic)” value in data set [12] stood at 0. Also, in data set [13], the “Hepatotoxicity (chronic liver disease)” value was 0. For the same compound, the “Hepatotoxicity (malignant tumour)” value in [14] is 0.
Consider `CCC(=O)NS(=O)(=O)c1ccc(-c2c(-c3ccccc3)noc2C)cc1` [PARECOXIB], for which the “Hepatotoxicity (choleostasis)” value in data set [1] was determined as 0. In addition, the “Hepatotoxicity (severe hepatitis)” value in [2] is 0. The entries for the “Hepatotoxicity (acute)” value in data set [3] and in [8] were 0 and 0%, respectively. In addition, in data set [4], the “Hepatotoxicity (benign tumour)” value is on record as 0. The “Hepatotoxicity (moderate)” value in [5] is 6.5%; in data set [7], 1. In data set [6], the “Hepatotoxicity (association with vascular disease)” value is 0. Besides, the “Hepatotoxicity (cirrhosis)” value in data set [9] was determined as 0. Moreover, the “Hepatotoxicity (granulomatous hepatitis)” value in [10] is recorded as 0. Further, in [11], the “Hepatotoxicity (steatosis)” value is 0. Moreover, the “Hepatotoxicity (cytolytic)” value in data set [12] was determined as 0. Moreover, the “Hepatotoxicity (chronic liver disease)” value in data set [13] was 0. The “Hepatotoxicity (malignant tumour)” value in [14] came to 0.
With `C[C@H]1COc2c(C3(N)CC3)c(F)cc3c(=O)c(C(=O)O)cn1c23` [PAZUFLOXACIN], the “Hepatotoxicity (choleostasis)” value in [1] was determined as 0. In addition, the “Hepatotoxicity (severe hepatitis)” value in data set [2] is recorded as 0. For the same compound, the “Hepatotoxicity (acute)” value is 0 in data set [3] and 0% in data set [8]. Moreover, the “Hepatotoxicity (benign tumour)” value in data set [4] was found to be 0. The “Hepatotoxicity (moderate)” value in [5] turned out to be 11.1%; in [7], 31. Moreover, the “Hepatotoxicity (association with vascular disease)” value in [6] came to 0. Besides, in [9], the “Hepatotoxicity (cirrhosis)” value worked out at 0. Besides, the “Hepatotoxicity (granulomatous hepatitis)” value in [10] worked out at 0. Further, the “Hepatotoxicity (steatosis)” value in data set [11] turned out to be 0. Also, in data set [12], the “Hepatotoxicity (cytolytic)” value is on record as 0. In addition, in data set [13], the “Hepatotoxicity (chronic liver disease)” value worked out at 0. For the same compound, the “Hepatotoxicity (malignant tumour)” value in data set [14] worked out at 0.
As to `CNc1nc(N(C)C)nc(N(C)C)n1` [PENTAMETHYL MELAMINE], the “Hepatotoxicity (choleostasis)” value in [1] was 0. In data set [2], the “Hepatotoxicity (severe hepatitis)” value was 0. The “Hepatotoxicity (acute)” value is recorded as 0 in [3] and 0% in [8]. For the same compound, in [4], the “Hepatotoxicity (benign tumour)” value came to 0. The “Hepatotoxicity (moderate)” value in [5] is listed as 31%; in [7] it was 1. For the same compound, in [6], the “Hepatotoxicity (association with vascular disease)” value amounted to 0. In data set [9], the “Hepatotoxicity (cirrhosis)” value is listed as 0. Also, the “Hepatotoxicity (granulomatous hepatitis)” value in data set [10] turned out to be 0. The “Hepatotoxicity (steatosis)” value in data set [11] was 0. Moreover, in [12], the “Hepatotoxicity (cytolytic)” value stood at 0. In addition, in data set [13], the “Hepatotoxicity (chronic liver disease)” value was found to be 0. Besides, in [14], the “Hepatotoxicity (malignant tumour)” value was determined as 0.
For `CCCN1C[C@H](CSC)C[C@@H]2c3cccc4[nH]cc(c34)C[C@H]21` [PERGOLIDE], the “Hepatotoxicity (choleostasis)” value in [1] amounted to 0. The “Hepatotoxicity (severe hepatitis)” value in data set [2] was 0. The “Hepatotoxicity (acute)” value in data set [3] turned out to be 0; in data set [8], 0%. Moreover, the “Hepatotoxicity (benign tumour)” value in data set [4] is on record as 0. For the same compound, the “Hepatotoxicity (moderate)” value in [5] came to 1.9%; in [7], 3. Also, the “Hepatotoxicity (association with vascular disease)” value in [6] is recorded as 0. In data set [9], the “Hepatotoxicity (cirrhosis)” value is on record as 0. Besides, the “Hepatotoxicity (granulomatous hepatitis)” value in [10] is given as 0. Further, the “Hepatotoxicity (steatosis)” value in [11] stood at 0. The “Hepatotoxicity (cytolytic)” value in [12] was determined as 0. Further, the “Hepatotoxicity (chronic liver disease)” value in [13] is recorded as 0. Further, the “Hepatotoxicity (malignant tumour)” value in data set [14] is on record as 0.
In the case of `CCC(C(=O)NC(N)=O)c1ccccc1` (stereo unspecified) [PHENETURIDE], the “Hepatotoxicity (choleostasis)” value in data set [1] worked out at 0. In addition, in data set [2], the “Hepatotoxicity (severe hepatitis)” value came to 0. The “Hepatotoxicity (acute)” value in data set [3] is reported as 0; in data set [8] it was 0%. Also, the “Hepatotoxicity (benign tumour)” value in data set [4] is given as 0. Further, the “Hepatotoxicity (moderate)” value in data set [5] stood at 0%; in [7] it was 1. In addition, the “Hepatotoxicity (association with vascular disease)” value in [6] is on record as 0. Moreover, the “Hepatotoxicity (cirrhosis)” value in data set [9] was 0. Further, the “Hepatotoxicity (granulomatous hepatitis)” value in [10] was 0. The “Hepatotoxicity (steatosis)” value in [11] was found to be 0. For the same compound, the “Hepatotoxicity (cytolytic)” value in [12] was 0. Besides, the “Hepatotoxicity (chronic liver disease)” value in data set [13] is on record as 0. Further, in data set [14], the “Hepatotoxicity (malignant tumour)” value was found to be 0.
In the case of `O=C(O)c1ccccc1C(=O)Nc1ccc(S(=O)(=O)Nc2nccs2)cc1` [PHTHALYLSULFATHIAZOLE], the “Hepatotoxicity (choleostasis)” value in data set [1] is on record as 0. Also, in [2], the “Hepatotoxicity (severe hepatitis)” value worked out at 0. The results for the “Hepatotoxicity (acute)” value in data set [3] and in data set [8] were 1 and 0%, respectively. Further, the “Hepatotoxicity (benign tumour)” value in data set [4] was 0. In addition, the “Hepatotoxicity (moderate)” value in [5] was determined as 0%; in data set [7], 0. The “Hepatotoxicity (association with vascular disease)” value in [6] is 0. Besides, in data set [9], the “Hepatotoxicity (cirrhosis)” value is listed as 0. The “Hepatotoxicity (granulomatous hepatitis)” value in data set [10] was found to be 0. Besides, the “Hepatotoxicity (steatosis)” value in data set [11] is recorded as 0. The “Hepatotoxicity (cytolytic)” value in [12] was 0. Besides, the “Hepatotoxicity (chronic liver disease)” value in data set [13] is 0. Besides, in data set [14], the “Hepatotoxicity (malignant tumour)” value was 0.
As for `CCn1cc(C(=O)O)c(=O)c2cnc(N3CCNCC3)nc21` [PIPEMIDIC ACID], the “Hepatotoxicity (choleostasis)” value in [1] was 0. In addition, in [2], the “Hepatotoxicity (severe hepatitis)” value was found to be 0. Also, the “Hepatotoxicity (acute)” value in [3] is recorded as 0; in [8] it was 0%. Moreover, in data set [4], the “Hepatotoxicity (benign tumour)” value is recorded as 0. In addition, the results for the “Hepatotoxicity (moderate)” value in data set [5] and in data set [7] were 0% and 1, respectively. Besides, the “Hepatotoxicity (association with vascular disease)” value in data set [6] amounted to 0. In [9], the “Hepatotoxicity (cirrhosis)” value amounted to 0. The “Hepatotoxicity (granulomatous hepatitis)” value in data set [10] worked out at 0. Moreover, the “Hepatotoxicity (steatosis)” value in [11] turned out to be 0. Further, the “Hepatotoxicity (cytolytic)” value in [12] was determined as 0. In data set [13], the “Hepatotoxicity (chronic liver disease)” value is recorded as 0. Also, in [14], the “Hepatotoxicity (malignant tumour)” value is reported as 0.
With `CC(=O)c1ccc2c(c1)N(CCCN1CCC(CCO)CC1)c1ccccc1S2` [PIPERACETAZINE], the “Hepatotoxicity (choleostasis)” value in [1] was 0. The “Hepatotoxicity (severe hepatitis)” value in data set [2] turned out to be 0. Moreover, the “Hepatotoxicity (acute)” value in [3] was 0; in data set [8], 0%. Further, the “Hepatotoxicity (benign tumour)” value in data set [4] worked out at 0. In addition, the “Hepatotoxicity (moderate)” value was found to be 39% in data set [5] and 1 in data set [7]. Further, in data set [6], the “Hepatotoxicity (association with vascular disease)” value was determined as 0. In addition, in [9], the “Hepatotoxicity (cirrhosis)” value turned out to be 0. Also, in data set [10], the “Hepatotoxicity (granulomatous hepatitis)” value was determined as 0. Moreover, the “Hepatotoxicity (steatosis)” value in data set [11] is 0. Further, the “Hepatotoxicity (cytolytic)” value in data set [12] is listed as 0. Besides, the “Hepatotoxicity (chronic liver disease)” value in data set [13] is given as 0. The “Hepatotoxicity (malignant tumour)” value in data set [14] is reported as 0.

These data come from ChEMBL document CHEMBL3137667, “[Drug-induced liver injury; fourteenth updated edition of the bibliographic database of liver injuries and related drugs]” (Gastroenterol Clin Biol, 2004).
